# From patent US20240307373A1, “METHODS OF USE AND COMPOSITIONS OF BISBENZYLISOQUINOLINES FOR THE TREATMENT OF MALIGNANCIES” (priority 2023, published 2024)
# Where “and” joins values, the source holds several entries; their conditions need not be identical. Equal values may be shown once.
# Tests used:
# hERG = hERG (Homo sapiens, UniProt Q12809); experiment: hERG inhibition, IonWorks HT electrophysiology in CHO cells stably transfected with hERG
# [1] = test system: human CML bone marrow-derived cells; experiment: Replating assay (secondary clonal growth of plucked CFU-GM colonies); assay type: cell-based
# Protocol: Following enumeration of the erythroid and myeloid progenitors, individual CFU-GM colonies were plucked from the matrix and diluted in 20 μL of IMDM+10% FBS. The colony was dispersed in this medium by gentle pipetting. This cellular mixture was then added to a well of a 96 well plate containing 180 μL of the ColonyGel medium described above. […] Both the number of wells which supported clonal growth as well as colony number per well were recorded.
# bcr-abl transcripts = experiment: qPCR assay for bcr-abl and abl transcripts in primary and secondary colonies; assay type: cell-based, human; details: 10 μM, number of colonies
# Protocol: After 14-16 days in culture, individual colonies were plucked from the solvent control and tetrandrine at 10 μM test condition into 75 μL of buffer RLT (Qiagen). Secondary replated colonies were collected and washed with 2 mL of 1× PBS, frozen at −80° C. and then lysed with 75 μL of buffer RLT (Qiagen). RNA was isolated using the Rneasy Micro kit according to the manufacture's instructions. Because the cell numbers in each colony were low, 20 ng of carrier RNA was included in each reaction to promote a better RNA yield. After elution, the entire isolation was subjected to a cDNA conversion using the high-capacity cDNA conversion kit (Life Technologies).
# Using cDNA derived from both primary and secondary replated colonies, qPCR assay was used to determine whether colonies were positive for ber-abl transcripts. Primers and probes were designed based on the publication from Luthra, et.al. and are designed to anneal to ber-abl (target) and abl (endogenous control) cDNA. Each target was assayed in duplicated in a 20 μL reaction volume. Samples were denatured at 95° C. for 10 min and then amplified for 40 rounds of 95° C. for 15 s and 60° C. for 60 s.
# To determine whether a colony was normal (bcr-abl negative and abl positive) or diseased (bcr-abl and abl positive), a TaqMan®-based qPCR test was used. In order to score the colonies positive or negative, the following scoring strategy was performed. All colonies were assayed in duplicate for each target. If a singleton reaction yielded a Ct then the reaction scored a 1. If no Ct was recorded, a score of 0 was given. From here, we used a logic test to score the colonies into four different categories: bcr-abl and abl, abl only, bcr-abl only or both negative. In order to be placed in a category, a colony must score a 1 in both reactions. However, if a colony only scored a 1 for one out of the two reactions, this colony was removed from the analysis. If a colony scored a 1 for each reaction (both bcr-abl and abl) the colony was placed into the ber-abl and abl category, signifying it as a diseased colony. Alternatively, if a colony scored a 1 in only both of the bcr-abl reactions or a 1 in only both the abl reactions, the colony was placed in the bcr-abl only or abl only category, respectively. If the colony scored a 0 for both targets (bcr-abl and abl) then the colony was placed in the both negative category.
# [2] = test system: human CML bone marrow-derived cells; experiment: Colony forming cell (CFC) assay on CML patient bone marrow cells; details: colony number, methylcellulose-based medium, 14-16 days
# Protocol: Clonogenic progenitors were set up using buman CML bone marrow-derived cells in the methylcellulose-based media formulation described above. Test articles were added to the medium to give final concentrations as described above. Standard cultures containing IMDM+10% FBS as well as solvent control cultures containing DMSO were also initiated. Following addition of the test compounds and cells, the tubes were vortexed to ensure equal distribution of compound and cells throughout the matrix. The cultures were set up in triplicate at 0.1×10^6 cells per culture (lot #BBM1000-E1110025705111110G4) for each control and each compound concentration. The cultures were placed in a humidified incubator (37° C., 5% CO2). Following 14-16 days in culture, the colonies were assessed and scored by trained personnel.
# Human bone marrow light-density cells derived from CML patient bone marrow (Conversant Bio, Alabama), were stored in the gaseous phase of liquid nitrogen until required. On the day of the experiment, the cells were thawed rapidly, the contents of the vial were diluted in 10 mL of Iscove's Modified Dulbecco's Medium containing 10% fetal bovine serum (IMDM+10% FBS) and washed by centrifugation (approximately 1200 r.p.m. for 10 minutes, room temperature). The supernatant was discarded, and the cell pellets were resuspended in a known volume of IMDM+10% FBS. A cell count (3% glacial acetic acid) and viability assessment (trypan blue exclusion test) […] Tetrandrine (10 μM) for 14 days. After treatment, primary and secondary colonies were grown and analyzed by qPCR to determine BCR-ABL or ABL only cells.
# Human erythroid (CFU-E and BFU-E) and myeloid (CFU-GM) colony enumeration were performed by trained personnel. In addition, the distribution of colony types as well as general colony and cellular morphology were analyzed. […] For statistical analysis, colony numbers in compound-treated cultures were compared to the solvent control cultures.
# P-glycoprotein (P-gp) = P-glycoprotein (P-gp) (Homo sapiens, UniProt P08183); details: cited from earlier work
# P-glycoprotein (P-gp), sequence (P08183 whole entry): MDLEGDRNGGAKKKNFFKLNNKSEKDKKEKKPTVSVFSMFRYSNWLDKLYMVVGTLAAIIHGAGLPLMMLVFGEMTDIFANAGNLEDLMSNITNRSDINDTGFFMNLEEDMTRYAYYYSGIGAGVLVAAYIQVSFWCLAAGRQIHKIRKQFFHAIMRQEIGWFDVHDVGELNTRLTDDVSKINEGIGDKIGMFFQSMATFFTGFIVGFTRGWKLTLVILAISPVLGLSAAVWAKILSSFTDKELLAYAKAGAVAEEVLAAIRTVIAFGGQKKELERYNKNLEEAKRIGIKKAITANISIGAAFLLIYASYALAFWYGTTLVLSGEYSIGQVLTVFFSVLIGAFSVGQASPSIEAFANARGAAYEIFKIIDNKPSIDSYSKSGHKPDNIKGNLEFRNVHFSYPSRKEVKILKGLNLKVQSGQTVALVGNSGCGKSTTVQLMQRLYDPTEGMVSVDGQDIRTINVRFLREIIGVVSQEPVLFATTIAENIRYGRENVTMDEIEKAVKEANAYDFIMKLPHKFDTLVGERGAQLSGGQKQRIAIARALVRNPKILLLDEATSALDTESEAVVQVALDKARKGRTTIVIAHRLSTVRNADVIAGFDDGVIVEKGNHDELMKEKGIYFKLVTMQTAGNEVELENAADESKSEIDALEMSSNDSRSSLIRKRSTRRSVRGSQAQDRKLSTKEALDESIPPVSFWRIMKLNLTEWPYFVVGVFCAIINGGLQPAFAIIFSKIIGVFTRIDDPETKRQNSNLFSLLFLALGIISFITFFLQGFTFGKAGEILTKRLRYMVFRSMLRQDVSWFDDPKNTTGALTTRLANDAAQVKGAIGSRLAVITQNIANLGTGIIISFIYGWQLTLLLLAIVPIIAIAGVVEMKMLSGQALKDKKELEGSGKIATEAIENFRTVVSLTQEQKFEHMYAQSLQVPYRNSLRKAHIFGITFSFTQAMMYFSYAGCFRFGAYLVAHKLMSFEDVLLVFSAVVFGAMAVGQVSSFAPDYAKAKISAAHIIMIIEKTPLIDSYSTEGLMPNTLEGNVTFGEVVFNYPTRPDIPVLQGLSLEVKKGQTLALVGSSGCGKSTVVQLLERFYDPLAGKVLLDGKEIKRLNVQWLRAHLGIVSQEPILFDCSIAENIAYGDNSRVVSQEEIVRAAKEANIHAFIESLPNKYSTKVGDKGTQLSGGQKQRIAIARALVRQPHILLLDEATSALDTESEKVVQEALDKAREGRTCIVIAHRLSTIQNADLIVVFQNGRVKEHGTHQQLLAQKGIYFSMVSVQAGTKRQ
# β-catenin = β-catenin level in K562 cell extracts by western blot; assay type: cell-based, human
# Protocol: Levels of β-catenin and β-actin proteins in untreated and tetrandrine-treated K562 cell lines by Western blot.
# Antibodies for Western Blot analysis against β-catenin and β-actin were purchased from Santa Cruz Biotechnology (Santa Cruz, CA) Protein lysates were prepared by lysing cells in RIPA buffer and immunoprecipitation.
# Briefly, the method to quantitate β-catenin protein by western blot was as follows: Extracts of K562 cells (untreated and treated with various concentrations of tetrandrine) were concentrated to 0.4 ml using Centricon-3 column to yield a protein concentration of approximately 2 mg/ml. Samples were mixed with 5X Laemmli buffer and loaded on 8-16% Tris-Glycine gradient gel, then polyacrylamide gel electrophoresis (PAGE) was run at 85 volts for 100 minutes at 6° C. and proteins were transferred on PVDF membrane at 70 Volts for 85 minutes at 8° C. Membrane was blocked with 5% milk in Tris-buffered Saline containing 0.1% TW-20 (TBST). Membrane was incubated with primary antibody for 18 hours at 4° C. followed by 3 washes, 5 minutes each, with TBST and incubated with secondary antibody in TBST for 2 hours at 25° C. […] Protein bands in WB images were quantitated using Molecular Imaging software pack MIS-4.0 software and tabulated in Excel spreadsheet.
# CAMKII gamma = biological target: T1, CAMKII gamma (Homo sapiens, UniProt Q13555); experiment: CAMKII gamma kinase activity (ADP Glo); assay type: biochemical
# T1 construct: purchased Promega V3531
# T1 sequence (Q13555 whole entry): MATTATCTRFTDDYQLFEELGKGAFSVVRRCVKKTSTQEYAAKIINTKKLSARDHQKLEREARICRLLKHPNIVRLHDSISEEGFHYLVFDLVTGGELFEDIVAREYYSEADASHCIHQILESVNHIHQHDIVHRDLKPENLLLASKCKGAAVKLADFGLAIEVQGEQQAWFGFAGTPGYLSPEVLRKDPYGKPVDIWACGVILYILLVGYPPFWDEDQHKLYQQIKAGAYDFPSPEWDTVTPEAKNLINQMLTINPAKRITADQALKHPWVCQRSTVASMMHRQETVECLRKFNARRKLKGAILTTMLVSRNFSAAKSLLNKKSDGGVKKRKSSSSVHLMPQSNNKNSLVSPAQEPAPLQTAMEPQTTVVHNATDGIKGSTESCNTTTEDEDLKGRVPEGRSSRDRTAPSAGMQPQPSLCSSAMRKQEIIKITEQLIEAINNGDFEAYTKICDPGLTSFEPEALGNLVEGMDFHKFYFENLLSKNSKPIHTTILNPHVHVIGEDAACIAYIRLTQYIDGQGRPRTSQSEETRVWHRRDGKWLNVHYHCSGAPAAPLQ
# Protocol: An enzymatic study was conducted to evaluate the inhibition of CAMKII gamma by ES-3000 (Tetrandrine). CAMKII gamma kinase activity was measured using […] purchased from Promega following the Promega protocol. CAMKII enzyme system purchased from Promega (V3531). ADP Glo was used for detection. Assay optimized for linearity of protein and time. Conditions for inhibitor screening 25 ng CAMKII, 20 min. incubations, inhibitor or DMSO (5%) at RT in 20 uL total volume. Inhibitors, ATP (10 or 50 uM), substrates and buffer added to tubes and reactions started with enzyme. […] Reactions terminated at 20 min. by adding ADP Glo reaction following manufactures instructions. All reactions were done in duplicate. Calculations of percent (%) inhibition determined by dividing the mean activity at each condition by the mean of the DMSO control times 100.
# calmodulin (CaM) = calmodulin (CaM) (Homo sapiens, UniProt P0DP23); details: Ma 2013; cited from earlier work
# [3] = test system: leukemic cells and leukemic stem cells; experiment: BCR-ABL induced CML mouse model (bone marrow transplantation); assay type: in vivo, C57BL/6 mice
# From the text: The method is as follows: 20 C57BL/6 mice were used as donors for bone marrow transduction. They were primed by intravenous injection with 5-fluorouracil four days before collecting cells. Bone marrow cells were harvested from femurs and tibias. Bone marrow cells were infected with a retrovirus containing MSCV-BCR-ABL-IRES-GFP twice 60 recipient mice were lethally irradiated by two doses of 550cGy before bone marrow transplantation by intravenous injection with 500,000 cells/mouse.
# In an in vivo model, the effectiveness of Tetrandrine was tested on CML stem cells. The objective of the study was to determine the survival of leukemic cells and leukemic stem cells in response to the treatment with Tetrandrine. After priming donor C57BL/6 (B6) mice with intravenous injections of 5-fluorouracil for four days, bone marrow cells were harvested from femurs and tibia, then transfected twice with retrovirus containing MSCV-BCR-ABL-IRES-GFP. Recipient mice were lethally irradiated by two doses of 550 cGy before bone marrow transplantation by intravenous injection with 5×10^5 cells/mouse. Blood from recipient mice was tested for disease induction one week after transduction by FACS analysis for GFP (FIG. 7A). […] Treatments started on day 8 after bone marrow transplantation (FIG. 7B).
# HCT116 cells = details: cited from earlier work
# [4] = test system: human breast, colon carcinoma, and hepatoma cell lines; details: read-out: IC50 range; cited from earlier work
# [5] = Tetrandrine 150 mg/kg orally 1×/day versus Imatinib 100 mg/kg 2×/day, treatment from day 8 after bone marrow transplantation
# hERG, sequence (Q12809 whole entry): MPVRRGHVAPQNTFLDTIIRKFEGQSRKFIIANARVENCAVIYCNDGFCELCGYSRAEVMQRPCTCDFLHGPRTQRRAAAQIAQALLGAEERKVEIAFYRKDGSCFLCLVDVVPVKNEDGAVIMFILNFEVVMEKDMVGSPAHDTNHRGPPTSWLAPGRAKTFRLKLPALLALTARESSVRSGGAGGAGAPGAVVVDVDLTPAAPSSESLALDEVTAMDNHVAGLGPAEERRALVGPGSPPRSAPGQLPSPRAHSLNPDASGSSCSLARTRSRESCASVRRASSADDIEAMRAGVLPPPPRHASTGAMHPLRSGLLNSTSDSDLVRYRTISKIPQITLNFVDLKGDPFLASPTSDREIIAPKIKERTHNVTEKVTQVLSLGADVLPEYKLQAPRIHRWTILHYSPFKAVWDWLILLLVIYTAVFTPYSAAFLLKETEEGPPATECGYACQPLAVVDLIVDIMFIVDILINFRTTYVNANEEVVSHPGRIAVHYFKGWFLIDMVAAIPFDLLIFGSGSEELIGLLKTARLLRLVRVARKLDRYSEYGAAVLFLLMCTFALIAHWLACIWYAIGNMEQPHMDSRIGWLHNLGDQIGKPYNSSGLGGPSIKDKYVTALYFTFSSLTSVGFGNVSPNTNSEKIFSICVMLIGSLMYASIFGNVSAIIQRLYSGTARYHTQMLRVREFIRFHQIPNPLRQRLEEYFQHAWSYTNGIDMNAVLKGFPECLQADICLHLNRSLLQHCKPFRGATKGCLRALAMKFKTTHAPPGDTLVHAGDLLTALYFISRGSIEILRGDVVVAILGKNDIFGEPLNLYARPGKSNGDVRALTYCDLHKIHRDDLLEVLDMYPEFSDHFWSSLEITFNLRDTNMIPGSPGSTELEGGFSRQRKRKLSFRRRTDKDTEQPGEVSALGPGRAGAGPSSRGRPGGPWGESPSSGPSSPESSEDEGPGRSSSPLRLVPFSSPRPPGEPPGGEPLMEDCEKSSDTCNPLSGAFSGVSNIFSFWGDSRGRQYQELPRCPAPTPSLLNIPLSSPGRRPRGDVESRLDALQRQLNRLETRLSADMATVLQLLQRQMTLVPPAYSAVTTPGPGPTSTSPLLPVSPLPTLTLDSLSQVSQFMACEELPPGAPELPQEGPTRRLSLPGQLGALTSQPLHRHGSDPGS
substance,measurement,setting,value
"6,6′,7,12-tetramethoxy-2,2′-dimethyl-berbaman [ES-3000]",plasma levels at which QT prolongation might be expected,"hERG; subjects, interpretation of hERG IC50",above 249 ng/ml
same,safety for cardiac conduction-related toxicity (hERG IC50 versus Cmax),"hERG; utilizing Cmax from previous human clinical experience (Oldham 1998, Oldham 2000)",13 fold
same,Repeating Colony Count (secondary colonies per well),"[1]; colonies plucked from original cultures with ES-3000 @ 10 μM, 96 well plate, 14 days",1
same,average CFC per well,[1]; original cultures with ES-3000 @ 10 μM,three
same,abl only,bcr-abl transcripts; Primary colonies,1
same,bcr-abl only,bcr-abl transcripts; Primary colonies,1
same,both negative,bcr-abl transcripts; Primary colonies,4
same,abl only,bcr-abl transcripts; Secondary colonies,1
same,bcr-abl only,bcr-abl transcripts; Secondary colonies,0
same,both negative,bcr-abl transcripts; Secondary colonies,9
same,BFU-E,[2]; 0.1 μM,22 ± 4
same,CFU-E,[2]; 0.1 μM,11 ± 1
same,CFU-GM,[2]; 0.1 μM,55 ± 5
same,Total Erythroid,[2]; 0.1 μM,33 ± 3
same,BFU-E,[2]; 1 μM,22 ± 4
same,CFU-E,[2]; 1 μM,10 ± 2
same,CFU-GM,[2]; 1 μM,54 ± 2
same,Total Erythroid,[2]; 1 μM,33 ± 3
same,BFU-E,[2]; 3 μM,14 ± 3
same,CFU-E,[2]; 3 μM,9 ± 2
same,CFU-GM,[2]; 3 μM,52 ± 5
same,Total Erythroid,[2]; 3 μM,23 ± 2
same,CFU-GM,[2]; 10 μM,26 ± 2
same,P-gp substrate,P-glycoprotein (P-gp); Susa 2010,not a substrate of P-gp
same,reversal of P-glycoprotein-mediated drug resistance,P-glycoprotein (P-gp),potent and specific activity
same,β-catenin band,β-catenin; K562 cells treated with 20 and 40 uM,absent
same,β-catenin level,"β-catenin; K562 cells, 0 to 40 uM, 24 hours, western blot",lowers the β-catenin level in K562 cells in a dose dependent manner
same,mean (units),"CAMKII gamma; 30 uM inhibitor, 10 uM ATP",3.09 units
same,units (duplicate reactions),"CAMKII gamma; 30 uM inhibitor, 10 uM ATP",2.75 units and 3.43 units
same,mean (units),"CAMKII gamma; 30 uM inhibitor, 50 uM ATP",10.55 units
same,units (duplicate reactions),"CAMKII gamma; 30 uM inhibitor, 50 uM ATP",10.4 units and 10.7 units
same,mean (units),"CAMKII gamma; 100 uM inhibitor, 10 uM ATP",2.87 units
same,units (duplicate reactions),"CAMKII gamma; 100 uM inhibitor, 10 uM ATP",2.5 units and 3.24 units
same,mean (units),"CAMKII gamma; 100 uM inhibitor, 50 uM ATP",7.955 units
same,units (duplicate reactions),"CAMKII gamma; 100 uM inhibitor, 50 uM ATP",8.81 units and 7.1 units
same,mean (units),"CAMKII gamma; 250 uM inhibitor, 10 uM ATP",0.41 units
same,units (duplicate reactions),"CAMKII gamma; 250 uM inhibitor, 10 uM ATP",0.34 units and 0.48 units
same,binding to calmodulin (CaM),calmodulin (CaM),bind competitively to calmodulin
same,spleen weight,"[3]; Tetrandrine 150 mg/kg in 0.1N HCl, 1 time per day",reduces spleen weight
same,development of circulating leukemic cells,[3]; [5],superior to Imatinib
same,development of leukemic stem cells,[3]; [5],superior to Imatinib
same,anticancer activity in combination with 5-FU,HCT116 cells; HCT116 (He 2011),synergistic anticancer activity with 5-FU
same,migration and invasion capabilities,HCT116 cells; HCT116 cells (He 2011),reduced migration and invasion capabilities
same,IC50,[4],1.5 to 10.4 µM
